Structures are written as SMILES. Values joined by “and” are separate entries in the source; they are usually repeats but may differ in a detail not shown here. Equal entries are not always repeated.

For this test, the target named is T1, IDO1 (Homo sapiens, UniProt P14902).
T1 construct: Recombinant full-length IDO1 (Seegers, N., et al.) and all other assay components were diluted in IDO1 reaction buffer; made in house
Kind of test: Biochemical IDO1 assay (NFK GreenScreen). Conditions: for IC50: NFK GreenScreen, 25 nM IDO1, 100 μM L-tryptophan, read-out: IC50, inhibitory potency on IDO1; for relative activity of the separated isomers: stated in the synthesis examples, assay not named. On the procedure:
Inhibition of IDO1 activity can be measured by determining the enzymatic conversion of L-tryptophan into N-formylkynurenine (NFK) in a reaction mixture containing IDO1 and test compound. The formation of NFK can be detected directly by, for instance, high-performance liquid chromatography (HPLC) methods, or by intrinsic fluorescence.
Compounds were serially diluted in dimethylsulfoxide (DMSO) and finally in IDO1 reaction buffer, consisting of 50 mM NaH2PO4, pH7.0, supplemented with 0.05% Tween-20 (cat. No. P7949; Sigma Aldrich) and 1% glycerol. Recombinant full-length IDO1 (Seegers, N., et al.) and all other assay components were diluted in IDO1 reaction buffer. […] Subsequently, 10 μl of 0.4 mM of the substrate L-tryptophan was added, i.e., the final concentration of L-tryptophan was 100 μM. The DMSO concentration in the assay was 0.3%. […] Incubation was continued for 60 min at room temperature. Then, 10 μl of NFK Green™ (NTRC, Oss, The Netherlands) was added, the plate was sealed, and the reaction was developed for 3 hours at 37° C. To determine the production of N-formyl kynurenine (NFK), the seal was removed and fluorescence was read on an EnVision multimode reader (Perkin Elmer, Waltham, Mass., USA). IC50 were calculated using XLfit™ software (ID Business Solutions, Ltd., Surrey, U.K.).

T1 sequence (P14902 whole entry): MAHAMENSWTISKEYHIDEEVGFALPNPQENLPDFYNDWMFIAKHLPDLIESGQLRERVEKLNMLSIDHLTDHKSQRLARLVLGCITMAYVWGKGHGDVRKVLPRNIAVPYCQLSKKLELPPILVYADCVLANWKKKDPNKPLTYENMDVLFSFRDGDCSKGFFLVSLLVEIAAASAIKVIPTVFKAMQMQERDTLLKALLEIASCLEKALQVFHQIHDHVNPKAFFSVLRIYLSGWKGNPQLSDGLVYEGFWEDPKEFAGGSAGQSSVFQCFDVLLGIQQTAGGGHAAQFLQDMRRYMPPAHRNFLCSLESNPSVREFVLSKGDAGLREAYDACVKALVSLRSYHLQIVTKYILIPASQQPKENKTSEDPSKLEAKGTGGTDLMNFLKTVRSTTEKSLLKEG

Consider `O=C1CN(Cc2c(F)cccc2F)C(c2cc(Br)cs2)N1O` (single isomer, unassigned) [Example 45a, 2-(4-Bromo-2-thienyl)-1-[(2,6-difluorophenyl)methyl]-3-hydroxy-imidazolidin-4-one], for which the IC50 is ≤ 5000 nM and 1000 to 5000 nM; the “relative activity of the separated isomers” value (“relative activity” for short) is on record as “less active isomer”. `O=C1CN(Cc2c(F)cccc2F)C(c2cc(Br)cs2)N1O` (single isomer, unassigned) [Example 45b, 2-(4-Bromo-2-thienyl)-1-[(2,6-difluorophenyl)methyl]-3-hydroxy-imidazolidin-4-one]: the IC50 was at most 1000 nM and the “relative activity” value is on record as “most active isomer”. In the case of `O=C1CN(C(=O)c2c(F)cccc2F)C(c2csc(Br)c2)N1O` (single isomer, unassigned) [Example 46a, 2-(5-Bromo-3-thienyl)-1-(2,6-difluorobenzoyl)-3-hydroxy-imidazolidin-4-one], the IC50 was ≤ 5000 nM and 1000 to 5000 nM; the “relative activity” value is “less active isomer”. As to `O=C1CN(C(=O)c2c(F)cccc2F)C(c2csc(Br)c2)N1O` (single isomer, unassigned) [Example 46b, 2-(5-Bromo-3-thienyl)-1-(2,6-difluorobenzoyl)-3-hydroxy-imidazolidin-4-one], the IC50 was at most 1000 nM and the “relative activity” value is “most active isomer”.

`O=C1CN(C(=O)c2c(F)cc(C#CC3CC3)cc2F)C(c2cc(Br)cs2)N1O` (single isomer, unassigned) [Example 47a, 2-(4-Bromo-2-thienyl)-1-[4-(2-cyclopropylethynyl)-2,6-difluoro-benzoyl]-3-hydroxy-imidazolidin-4-one]: the IC50 was at most 1000 nM and the “relative activity” value is recorded as “less active isomer”. For `O=C1CN(C(=O)c2c(F)cc(C#CC3CC3)cc2F)C(c2cc(Br)cs2)N1O` (single isomer, unassigned) [Example 47b, 2-(4-Bromo-2-thienyl)-1-[4-(2-cyclopropylethynyl)-2,6-difluoro-benzoyl]-3-hydroxy-imidazolidin-4-one], the IC50 is at most 1000 nM and the “relative activity” value was “most active isomer”. For the compound `O=C1CN(C(=O)c2c(F)cccc2F)C(c2cc(Br)cs2)N1O` (single isomer, unassigned) [Example 48a, 2-(4-Bromo-2-thienyl)-1-(2,6-difluorobenzoyl)-3-hydroxy-imidazolidin-4-one], the IC50 is at most 1000 nM and the “relative activity” value is “less active isomer”. As to `O=C1CN(C(=O)c2c(F)cccc2F)C(c2cc(Br)cs2)N1O` (single isomer, unassigned) [Example 48b, 2-(4-Bromo-2-thienyl)-1-(2,6-difluorobenzoyl)-3-hydroxy-imidazolidin-4-one], the IC50 was at most 1000 nM and the “relative activity” value was “most active isomer”.

`O=C1CN(C(=O)c2c(F)cccc2F)C(c2ccc(Br)s2)N1O` (single isomer, unassigned) [Example 49a, 2-(5-Bromo-2-thienyl)-1-(2,6-difluorobenzoyl)-3-hydroxy-imidazolidin-4-one]: the IC50 was ≤ 5000 nM and 1000 to 5000 nM; the “relative activity” value is “less active isomer”. As for `O=C1CN(C(=O)c2c(F)cccc2F)C(c2ccc(Br)s2)N1O` (single isomer, unassigned) [Example 49b, 2-(5-Bromo-2-thienyl)-1-(2,6-difluorobenzoyl)-3-hydroxy-imidazolidin-4-one], the IC50 was at most 1000 nM and the “relative activity” value is “most active isomer”. `O=C1CN(C(=O)c2c(F)cccc2F)C(c2cc(Br)c(F)s2)N1O` (single isomer, unassigned) [Example 110a, 2-(4-Bromo-5-fluoro-2-thienyl)-1-(2,6-difluorobenzoyl)-3-hydroxy-imidazolidin-4-one]: the “relative activity” value is reported as “most active isomer”.

As for `O=C1CN(C(=O)c2c(F)cccc2F)C(c2cc(Br)c(F)s2)N1O` (single isomer, unassigned) [Example 110b, 2-(4-Bromo-5-fluoro-2-thienyl)-1-(2,6-difluorobenzoyl)-3-hydroxy-imidazolidin-4-one], the “relative activity” value is recorded as “less active isomer”. On the same count and under the same terms, for `C[C@@H](c1ccccc1)N1CC(=O)N(O)C1c1cc(Br)cs1` (single isomer, unassigned) [Example 118a] the value was “less active isomer”. Consider `C[C@@H](c1ccccc1)N1CC(=O)N(O)C1c1cc(Br)cs1` (single isomer, unassigned) [Example 118b], for which the IC50 is at most 1000 nM and the “relative activity” value is recorded as “most active isomer”. Turning to `C[C@@H](c1ccccc1)N1CC(=O)N(O)C1c1cc(I)cs1` (single isomer, unassigned) [Example 119a], the “relative activity” value was “less active isomer”. As for `C[C@@H](c1ccccc1)N1CC(=O)N(O)C1c1cc(I)cs1` (single isomer, unassigned) [Example 119b], the IC50 was at most 1000 nM and the “relative activity” value is listed as “most active isomer”.

For the compound `C[C@@H](c1ccccc1)N1CC(=O)N(O)C1c1ccc(Br)s1` (single isomer, unassigned) [Example 120a], the “relative activity” value is given as “less active isomer”. `C[C@@H](c1ccccc1)N1CC(=O)N(O)C1c1ccc(Br)s1` (single isomer, unassigned) [Example 120b]: the IC50 was at most 1000 nM and the “relative activity” value is reported as “most active isomer”.

On to `C[C@@H](c1ccccc1)N1CC(=O)N(O)C1c1csc(Br)c1` (single isomer, unassigned) [Example 121a], for which the “relative activity” value was “less active isomer”. With `C[C@@H](c1ccccc1)N1CC(=O)N(O)C1c1csc(Br)c1` (single isomer, unassigned) [Example 121b], the IC50 is at most 1000 nM and the “relative activity” value is “most active isomer”. Regarding `C#Cc1csc(C2N(O)C(=O)CN2C(=O)c2c(F)cccc2F)c1` (stereo not shown) [Example 1, 1-(2,6-Difluorobenzoyl)-2-(4-ethynyl-2-thienyl)-3-hydroxy-imidazolidin-4-one], the IC50 was at most 1000 nM. Same read-out and setting: the result for `O=C1CN(C(=O)c2ccccc2F)C(c2ccc(Br)s2)N1O` (stereo not shown) [Example 2, 2-(5-Bromo-2-thienyl)-1-(2-fluorobenzoyl)-3-hydroxy-imidazolidin-4-one] reads at most 1000 nM; that for `O=C1CN(C(=O)c2c(F)cccc2Cl)C(c2ccc(Br)s2)N1O` (stereo not shown) [Example 3, 2-(5-Bromo-2-thienyl)-1-(2-chloro-6-fluoro-benzoyl)-3-hydroxy-imidazolidin-4-one], ≤ 5000 nM and 1000 to 5000 nM. Still for that read-out and setting: for `O=C1CN(C(=O)c2c(F)cccc2F)C(c2ccc(Br)s2)N1O` (stereo not shown) [Example 4, 2-(5-Bromo-2-thienyl)-1-(2,6-difluorobenzoyl)-3-hydroxy-imidazolidin-4-one] the value was at most 1000 nM; for `O=C1CN(C(=O)c2c(F)cccc2Cl)C(c2cc(Br)cs2)N1O` (stereo not shown) [Example 7, 2-(4-Bromo-2-thienyl)-1-(2-chloro-6-fluoro-benzoyl)-3-hydroxy-imidazolidin-4-one], at most 1000 nM. As to `O=C1CN(C(=O)c2c(F)cccc2F)C(c2cc(Br)cs2)N1O` (stereo not shown) [Example 8, 2-(4-Bromo-2-thienyl)-1-(2,6-difluorobenzoyl)-3-hydroxy-imidazolidin-4-one], the half-maximal inhibitory concentration (IC50) was at most 1000 nM.

These data come from patent US11053230B2, “3-hydroxy-imidazolidin-4-one compounds as inhibitors of indoleamine 2,3-dioxygenase” (Netherlands Translational Research Center B.V., priority 2017, dated 2021).
